Assay results as given in publication PMC12799524, “Putative new biomarkers for renal transporter-mediated drug-drug interactions: Characterization as substrates of organic cation transporter 2, multidrug and toxin extrusion protein 1, and other important drug transporters” (Drug Metabolism and Disposition, 2025).

Key:
[1] = biological target: T1, human OCT2 (Homo sapiens, UniProt O15244); experiment: Intracellular accumulation and transcellular transport in MDCK-OCT2 monolayers; format: in vitro ADME; design: expressed in transfected cells; details: for Intracellular concentration in MDCK-OCT2 cells in comparison to MDCK-VC cells: 10 μM basal, 60 minutes
T1 sequence (O15244 1-555): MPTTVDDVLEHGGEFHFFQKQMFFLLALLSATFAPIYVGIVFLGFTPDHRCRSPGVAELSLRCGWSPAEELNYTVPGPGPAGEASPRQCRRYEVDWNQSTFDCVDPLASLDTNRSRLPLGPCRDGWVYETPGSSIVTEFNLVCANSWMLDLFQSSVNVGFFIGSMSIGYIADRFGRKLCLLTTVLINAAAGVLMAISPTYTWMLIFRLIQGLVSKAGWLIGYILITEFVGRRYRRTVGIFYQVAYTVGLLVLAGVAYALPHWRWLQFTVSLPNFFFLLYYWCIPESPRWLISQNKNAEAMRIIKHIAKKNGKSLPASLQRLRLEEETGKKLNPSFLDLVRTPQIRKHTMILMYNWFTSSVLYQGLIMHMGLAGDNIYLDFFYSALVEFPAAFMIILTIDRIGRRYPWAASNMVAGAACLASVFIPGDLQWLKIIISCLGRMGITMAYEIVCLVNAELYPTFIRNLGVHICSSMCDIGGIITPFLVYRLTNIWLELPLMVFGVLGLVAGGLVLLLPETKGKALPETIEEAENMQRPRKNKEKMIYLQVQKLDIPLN
Experimental: (§1) The intracellular accumulation and transcellular, basal to apical transport experiments were performed as previously described in monolayers of polarized single-transfected (MDCK-OCT2, MDCK-MATE1) and double-transfected (MDCK-OCT2-MATE1) MDCK cells, MDCK control cells (MDCK-VC), or Caco-2 cells.[22] In brief, cell monolayers were grown in cell culture inserts on porous membranes. For MDCK-VC, MDCK-OCT2 and Caco-2, 5 × 10^5 cells were used per well; for MDCK-OCT2-MATE1, 6 × 10^5 cells were used, and for MDCK-MATE1, 8 × 10^5 cells were used per well. Cells were grown to confluence for 72 hours, induced with 10 mM sodium butyrate 48 hours after seeding for 24 hours (MDCK only), and subsequently used for transport experiments.
(§2) In general, after the cell culture medium was removed from both sides of the monolayers, cells were washed at 37 °C with transport buffer of the same composition as described in the previous section. Experiments were started by replacing the medium in the basal compartment with medium containing the putative biomarkers or [^3H]-labeled positive control substrates. The pH of the buffer on the basal side was 7.3 and 6.5 on the apical side for MDCK cells, whereas it was 7.3 on either side for Caco-2 cells. Cells were incubated at 37 °C and the buffer from the apical compartment was taken after 60 minutes for MDCK cells and after 240 minutes for Caco-2 cells. In case of Caco-2 cells, endogenous P-gp was inhibited by adding 2 μM of valspodar to the basal compartment. To measure the cellular accumulation of the test compounds, the remaining medium was removed at the end of the incubation period and the cell monolayers were rapidly rinsed 3 times with ice-cold 0.9% NaCl in water. Filters were detached from the chambers and placed into 500 μL of 80% MeOH containing the aforementioned recovery standards to lyse cells for subsequent LC-MS analysis or into 600 μL of 0.2% SDS (control experiments only). In the control experiments, the radioactivity of the collected apical medium and the solubilized cell monolayers and protein concentrations of the cell lysates were measured in the same way as described for the experiments with HEK cells.
(§3) The intracellular background of all 5 compounds in HEK cells at the beginning of the uptake experiments was investigated 48 hours after seeding without incubation with transport buffer (ie, 0 minutes). […] Then, cells were lysed with ice-cold 80% MeOH containing the aforementioned recovery standards. In addition, the impact of a 5-minute incubation period with transport buffer without added substance was investigated.

[2] = biological target: T2, MATE1 (Homo sapiens, UniProt Q96FL8); experiment: Intracellular accumulation and transcellular transport in MDCK-MATE1 monolayers; details: for Intracellular accumulation in MDCK-MATE1 cells compared to MDCK-VC cells / Transcellular basal to apical transport in MDCK-MATE1 cells vs MDCK-VC cells: 10 μM basal, 60 minutes
T2 sequence (Q96FL8 1-570): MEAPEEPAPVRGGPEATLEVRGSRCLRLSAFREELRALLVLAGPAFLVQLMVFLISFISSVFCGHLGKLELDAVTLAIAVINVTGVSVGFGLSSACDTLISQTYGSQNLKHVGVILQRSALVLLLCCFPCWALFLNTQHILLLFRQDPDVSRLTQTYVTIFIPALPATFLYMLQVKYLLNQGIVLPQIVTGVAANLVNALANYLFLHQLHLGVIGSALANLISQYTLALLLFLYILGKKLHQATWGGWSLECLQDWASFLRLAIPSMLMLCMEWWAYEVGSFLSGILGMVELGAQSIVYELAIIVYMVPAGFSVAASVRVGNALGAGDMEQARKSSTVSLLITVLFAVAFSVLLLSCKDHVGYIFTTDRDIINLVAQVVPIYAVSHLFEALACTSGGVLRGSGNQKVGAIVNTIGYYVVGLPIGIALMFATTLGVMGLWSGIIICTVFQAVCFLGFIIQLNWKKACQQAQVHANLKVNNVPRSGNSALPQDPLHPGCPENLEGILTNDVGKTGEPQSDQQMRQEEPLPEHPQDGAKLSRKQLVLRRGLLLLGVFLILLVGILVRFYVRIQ
Experimental: as §1, §2, §3

[3] = tested on: human OCT2 and MATE1; experiment: Intracellular accumulation and transcellular transport in double-transfected MDCK-OCT2-MATE1 monolayers; format: in vitro ADME; details: for Intracellular concentration in MDCK-OCT2-MATE1 cells vs MDCK-VC cells: 10 μM basal, 60 minutes
Experimental: as §1, §2, §3

[4] = biological target: P-gp (Homo sapiens, UniProt P08183); experiment: Intracellular accumulation and basal to apical transport in Caco-2 cells with/without valspodar; details: for In Vitro P-gp (substrate class): Caco-2 cells, valspodar
Sequence of P-gp (P08183 whole entry): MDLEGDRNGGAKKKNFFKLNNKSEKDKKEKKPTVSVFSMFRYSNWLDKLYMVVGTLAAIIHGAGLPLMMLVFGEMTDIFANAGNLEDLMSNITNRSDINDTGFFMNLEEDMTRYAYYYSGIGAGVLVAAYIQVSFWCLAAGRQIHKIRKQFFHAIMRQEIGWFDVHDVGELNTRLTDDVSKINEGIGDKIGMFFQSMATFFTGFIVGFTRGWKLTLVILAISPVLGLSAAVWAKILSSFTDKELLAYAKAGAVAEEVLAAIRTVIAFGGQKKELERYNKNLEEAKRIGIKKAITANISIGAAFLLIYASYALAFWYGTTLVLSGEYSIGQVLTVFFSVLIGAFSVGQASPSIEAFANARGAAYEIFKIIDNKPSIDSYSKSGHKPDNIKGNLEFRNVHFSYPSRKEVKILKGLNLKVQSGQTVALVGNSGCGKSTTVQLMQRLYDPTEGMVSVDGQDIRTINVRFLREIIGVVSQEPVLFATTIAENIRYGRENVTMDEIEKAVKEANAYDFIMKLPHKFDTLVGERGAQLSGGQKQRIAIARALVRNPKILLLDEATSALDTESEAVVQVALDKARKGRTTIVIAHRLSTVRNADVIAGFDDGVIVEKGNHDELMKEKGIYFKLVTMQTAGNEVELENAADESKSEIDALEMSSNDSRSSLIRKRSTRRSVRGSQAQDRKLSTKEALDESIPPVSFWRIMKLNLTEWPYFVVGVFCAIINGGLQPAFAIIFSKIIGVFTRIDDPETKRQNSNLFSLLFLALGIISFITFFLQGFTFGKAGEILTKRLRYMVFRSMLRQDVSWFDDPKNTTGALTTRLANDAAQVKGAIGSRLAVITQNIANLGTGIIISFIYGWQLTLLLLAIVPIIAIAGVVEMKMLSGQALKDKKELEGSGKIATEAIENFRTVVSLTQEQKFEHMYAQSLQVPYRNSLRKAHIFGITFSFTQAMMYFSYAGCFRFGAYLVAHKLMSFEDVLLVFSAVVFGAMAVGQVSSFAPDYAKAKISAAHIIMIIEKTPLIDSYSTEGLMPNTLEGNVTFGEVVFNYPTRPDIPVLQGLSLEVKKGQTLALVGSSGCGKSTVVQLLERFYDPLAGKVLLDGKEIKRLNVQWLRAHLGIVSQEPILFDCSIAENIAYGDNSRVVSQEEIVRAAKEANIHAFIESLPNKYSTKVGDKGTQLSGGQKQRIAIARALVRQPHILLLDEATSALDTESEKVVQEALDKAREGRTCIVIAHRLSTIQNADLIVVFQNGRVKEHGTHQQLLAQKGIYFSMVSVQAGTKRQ
Experimental: as §1, §2, §3

[5] = biological target: T1, human OCT2; experiment: Uptake assay in HEK-OCT2 vs HEK-VC cells; format: in vitro ADME; design: expressed in transfected cells; host or cells: HEK293 (HEK-OCT2); details: for Effect of cimetidine on uptake in HEK-OCT2 cells: cimetidine 50 μM; for Effect of cimetidine on uptake in HEK-OCT2 cells / Uptake in HEK-OCT2 cells compared to HEK-VC cells (in words): 10 and 100 μM substrate; for In Vitro OCT2 (substrate class): summary of in vitro uptake/transport results
Experimental: Transport experiments were performed 48 hours after seeding.
as §3

[6] = 60 minutes without added substance
[7] = 10 μM substrate, 240 minutes, valspodar 2 μM
[8] = 10 μM substrate, 5 minutes, HEK-VC set to 100%

Intracellular concentration in MDCK-OCT2 cells in comparison to MDCK-VC cells [1]	Intracellular background in MDCK-OCT2 cells vs MDCK-VC cells [1, 6]	Intracellular accumulation in MDCK-MATE1 cells compared to MDCK-VC cells [2]	Transcellular basal to apical transport in MDCK-MATE1 cells vs MDCK-VC cells [2]	Intracellular concentration in MDCK-OCT2-MATE1 cells vs MDCK-VC cells [3]	Effect of valspodar on basal to apical translocation in Caco-2 cells [4, 7]	In Vitro P-gp (substrate class) [4]	Intracellular background in HEK-OCT2 cells compared to HEK-VC cells ([5]; 0 minutes, without added substance)	Intracellular concentration in HEK-OCT2 cells compared to HEK-VC cells (in words) ([5]; 10 μM substrate, 5 minutes)	Intracellular concentration in HEK-OCT2 cells compared to HEK-VC cells (in words) ([5]; 100 μM substrate, 5 minutes)	Intracellular background in HEK-OCT2 cells compared to HEK-VC cells ([5]; 5 minutes in transport buffer without added substance)	Effect of cimetidine on uptake in HEK-OCT2 cells ([5]; 5 minutes)	In Vitro OCT2 (substrate class) [5]	Uptake in HEK-OCT2 cells compared to HEK-VC cells [5, 8] [%]	Uptake in HEK-OCT2 cells compared to HEK-VC cells (in words) ([5]; 5 minutes)	Uptake ratio in HEK-OCT2 cells compared to HEK-VC cells ([5]; 100 μM substrate, 5 minutes, HEK-VC set to 100%) [%]	Structure (SMILES)	Intracellular background in MDCK-MATE1 cells [2, 6]	Intracellular background in MDCK-OCT2-MATE1 cells [3, 6]	Transcellular transport in Caco-2 cells with valspodar, of the respective control ([4]; 10 μM substrate, 240 minutes, valspodar 2 μM, without valspodar set to 100%) [%]
significantly increased	much lower	significant reduction	not statistically significant	no significant difference	no significant effect	-	lower	comparable	significantly higher	lower	significantly reduced	+				C[N+](C)(C)CCCCC(=O)[O-] [5-Amino valeric acid betaine, 5-amino valeric acid betaine]	no 5-amino valeric acid betaine could be detected	no 5-amino valeric acid betaine could be detected	
significantly increased		no significant difference		no significant difference	no significant effect	-					significantly reduced	++	3245	significantly higher		NCCc1ccc(O)cc1 [Tyramine, tyramine]			
significantly increased		no significant difference	considerably increased	significantly higher	no significant effect	-					significantly reduced	++	3960	significantly higher	6281	NCCc1c[nH]c2ccc(O)cc12 [Serotonin, serotonin]			

Structure (SMILES)	Intracellular concentration in MDCK-OCT2 cells in comparison to MDCK-VC cells [1]	Intracellular background in MDCK-OCT2 cells vs MDCK-VC cells [1, 6]	Intracellular accumulation in MDCK-MATE1 cells compared to MDCK-VC cells [2]	Transcellular basal to apical transport in MDCK-MATE1 cells vs MDCK-VC cells [2]	Intracellular concentration in MDCK-OCT2-MATE1 cells vs MDCK-VC cells [3]	Effect of valspodar on basal to apical translocation in Caco-2 cells [4, 7]	In Vitro P-gp (substrate class) [4]	Intracellular background in HEK-OCT2 cells compared to HEK-VC cells ([5]; 0 minutes, without added substance)	Intracellular concentration in HEK-OCT2 cells compared to HEK-VC cells (in words) ([5]; 10 μM substrate, 5 minutes)	Intracellular concentration in HEK-OCT2 cells compared to HEK-VC cells (in words) ([5]; 100 μM substrate, 5 minutes)	Intracellular background in HEK-OCT2 cells compared to HEK-VC cells ([5]; 5 minutes in transport buffer without added substance)	Effect of cimetidine on uptake in HEK-OCT2 cells ([5]; 5 minutes)	In Vitro OCT2 (substrate class) [5]	Uptake in HEK-OCT2 cells compared to HEK-VC cells [5, 8] [%]	Uptake in HEK-OCT2 cells compared to HEK-VC cells (in words) ([5]; 5 minutes)	Uptake ratio in HEK-OCT2 cells compared to HEK-VC cells ([5]; 100 μM substrate, 5 minutes, HEK-VC set to 100%) [%]	Intracellular background in MDCK-MATE1 cells [2, 6]	Intracellular background in MDCK-OCT2-MATE1 cells [3, 6]	Transcellular transport in Caco-2 cells with valspodar, of the respective control ([4]; 10 μM substrate, 240 minutes, valspodar 2 μM, without valspodar set to 100%) [%]
Cn1cnc(CCN)c1 [1-Methylhistamine, 1-methylhistamine]			no significant difference		significantly higher	significantly reduced	0 (significant uptake in HEK cells, but less than 300% of respective control cells or significant reduction of transcellular transport in Caco-2 cells, but reduction not below 50% of respective control without valspodar)												67
